Source: patent publication US9284272B2, “Inhibitors of histone methyltransferase G9a” (AbbVie Inc., priority 2014, dated 2016)

tested on: MV4;11 cells; assay: Differentiation, proliferation, viability and cell cycle of MV4;11 cells, 14 days; type: cell-based, human; settings: MV4;11 cells, 0-3 μM
Description: MV4;11 cells are a human acute myelocytic leukemia (AML) cell line derived from a human with leukemia.

Row | SMILES | cell cycle analysis (PI staining) | expression of marker CD11b by flow cytometry (differentiation)
1 | CC1=C(/C=C/C(C)=C/C=C/C(C)=C/C(=O)O)C(C)(C)CCC1 [ATRA, all trans retinoic acid, reference compound] | more cells were observed to be in the subG1/G0 phase | more cells in the population expressed the marker CD11b

same assay, conditions: MV4;11 cells, compared with Example 7

Row | SMILES | effect on cell viability
2 | CC1=C(/C=C/C(C)=C/C=C/C(C)=C/C(=O)O)C(C)(C)CCC1 [ATRA, all trans retinoic acid, reference compound] | less of an effect on cell viability

same assay, conditions: MV4;11 cells, increasing concentration

Row | SMILES | growth inhibition and expression of CD11b
3 | CC1=C(/C=C/C(C)=C/C=C/C(C)=C/C(=O)O)C(C)(C)CCC1 [ATRA, all trans retinoic acid, reference compound] | lead to growth inhibition and expression of CD11b

target: T1, G9a (Homo sapiens, UniProt Q96KQ7); assay: Inhibition of G9a, AlphaLISA assay; type: biochemical; settings: not given
T1 sequence (Q96KQ7 1-1210): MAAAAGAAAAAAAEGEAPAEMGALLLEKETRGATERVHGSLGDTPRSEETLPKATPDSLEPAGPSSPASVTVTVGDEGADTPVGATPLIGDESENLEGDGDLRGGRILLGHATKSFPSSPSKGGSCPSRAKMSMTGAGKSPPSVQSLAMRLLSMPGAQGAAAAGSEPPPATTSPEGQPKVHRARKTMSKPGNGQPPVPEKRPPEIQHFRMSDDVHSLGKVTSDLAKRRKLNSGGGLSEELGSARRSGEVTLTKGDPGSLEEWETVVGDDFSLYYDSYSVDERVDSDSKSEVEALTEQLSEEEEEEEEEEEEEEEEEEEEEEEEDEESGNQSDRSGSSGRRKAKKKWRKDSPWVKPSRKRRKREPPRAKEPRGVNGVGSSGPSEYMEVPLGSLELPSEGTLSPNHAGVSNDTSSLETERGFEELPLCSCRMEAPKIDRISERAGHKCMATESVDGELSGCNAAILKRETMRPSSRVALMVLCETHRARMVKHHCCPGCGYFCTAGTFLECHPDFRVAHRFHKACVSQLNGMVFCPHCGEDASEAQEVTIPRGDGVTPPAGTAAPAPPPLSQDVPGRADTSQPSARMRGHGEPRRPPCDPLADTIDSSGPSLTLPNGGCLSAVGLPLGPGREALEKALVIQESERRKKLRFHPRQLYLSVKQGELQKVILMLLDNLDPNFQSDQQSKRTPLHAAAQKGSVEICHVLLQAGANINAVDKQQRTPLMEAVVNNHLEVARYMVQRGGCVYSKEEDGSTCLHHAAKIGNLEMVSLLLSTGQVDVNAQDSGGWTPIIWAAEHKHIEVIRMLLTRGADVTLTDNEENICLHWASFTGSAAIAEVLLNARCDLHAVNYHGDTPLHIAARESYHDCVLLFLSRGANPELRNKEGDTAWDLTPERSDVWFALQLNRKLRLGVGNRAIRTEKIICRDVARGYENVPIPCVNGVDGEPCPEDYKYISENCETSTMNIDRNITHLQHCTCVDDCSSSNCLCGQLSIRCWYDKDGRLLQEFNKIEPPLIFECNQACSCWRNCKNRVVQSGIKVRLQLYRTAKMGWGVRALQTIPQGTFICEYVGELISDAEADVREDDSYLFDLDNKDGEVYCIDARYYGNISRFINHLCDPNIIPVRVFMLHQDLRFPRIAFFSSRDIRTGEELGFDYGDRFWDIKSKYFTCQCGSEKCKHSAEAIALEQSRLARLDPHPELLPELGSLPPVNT
Description: The G9a assay was conducted in an Alphascreen format to detect methyl modification of a histone H3 peptide by the histone methyl transferase activity of the G9a enzyme.
For the assay, the following buffer was used to set up reactions: 50 mM Tris-HCl pH 7.5, 50 mM NaCl, 1 mM DTT, 0.01% Triton X-100, and 0.005% BSA, with the DTT and BSA added fresh prior to starting the reactions.
IC50 values were calculated by fitting the inhibition percent to the concentration of inhibitor [I] in the assay in equation 1 below, to solve for the IC50.

Row | SMILES | IC50 [nM]
4 | COc1cc2c(cc1OC)C1(CCCCC1)C(N)=N2 [Example 2, 5′,6′-dimethoxyspiro[cyclohexane-1,3′-indol]-2′-amine] | 3540
5 | COc1cc2c(cc1OC)C1(CCC1)C(N)=N2 [Example 3, 5′,6′-dimethoxyspiro[cyclobutane-1,3′-indol]-2′-amine] | 153
6 | COc1cc2c(cc1OC)C1(CCCC1)C(N)=N2 [Example 4, 5′,6′-dimethoxyspiro[cyclopentane-1,3′-indol]-2′-amine] | 2460
7 | COc1ccc2c(c1)C1(CCC1)C(N)=N2 [Example 5, 5′-methoxyspiro[cyclobutane-1,3′-indol]-2′-amine] | 18200
8 | COc1cc2c(cc1OC)N=C(N)C2 [Example 6, 5,6-dimethoxy-3H-indol-2-amine] | 14400
9 | COc1cc2c(cc1OCC1CCN(C)C1)N=C(N)C21CCC1 (stereo not shown) [Example 8, 5′-methoxy-6′-((1-methylpyrrolidin-3-yl)methoxy)spiro[cyclobutane-1,3′-indol]-2′-amine] | 1
10 | COc1cc2c(cc1OCC1CCCN1C)N=C(N)C21CCC1 (stereo not shown) [Example 9, 5′-methoxy-6′-((1-methylpyrrolidin-2-yl)methoxy)spiro[cyclobutane-1,3′-indol]-2′-amine] | 5
11 | COc1cc2c(cc1OCCC1CCCN1C)N=C(N)C21CCC1 (stereo not shown) [Example 10, 5′-methoxy-6′-(2-(1-methylpyrrolidin-2-yl)ethoxy)spiro[cyclobutane-1,3′-indol]-2′-amine] | 150
12 | COc1cc2c(cc1OCCCn1ccnc1)N=C(N)C21CCC1 [Example 11, 6′-(3-(1H-imidazol-1-yl)propoxy)-5′-methoxyspiro[cyclobutane-1,3′-indol]-2′-amine] | 754
13 | COc1cc2c(cc1OCCCN1CC[C@H](F)C1)N=C(N)C21CCC1 [Example 12, (S)-6′-(3-(3-fluoropyrrolidin-1-yl)propoxy)-5′-methoxyspiro[cyclobutane-1,3′-indol]-2′-amine] | 3.7
14 | COc1cc2c(cc1OCCCN1CC(F)C1)N=C(N)C21CCC1 [Example 13, 6′-(3-(3-fluoroazetidin-1-yl)propoxy)-5′-methoxyspiro[cyclobutane-1,3′-indol]-2′-amine] | 4.8
15 | COc1cc2c(cc1OCCCN1CC(F)(F)C1)N=C(N)C21CCC1 [Example 14, 6′-(3-(3,3-difluoroazetidin-1-yl)propoxy)-5′-methoxyspiro[cyclobutane-1,3′-indol]-2′-amine] | 1340
16 | COc1cc2c(cc1OCCCN1CC[C@@H](F)C1)N=C(N)C21CCC1 [Example 15, (R)-6′-(3-(3-fluoropyrrolidin-1-yl)propoxy)-5′-methoxyspiro[cyclobutane-1,3′-indol]-2′-amine] | 18
17 | COc1cc2c(cc1OCCCN1CCCC1)N=C(N)C2(C)C [Example 16, 5-methoxy-3,3-dimethyl-6-(3-(pyrrolidin-1-yl)propoxy)-3H-indol-2-amine] | 0.9
18 | COc1cc2c(cc1OCCCC1CCCC1)N=C(N)C2(C)C [Example 17, 6-(3-cyclopentylpropoxy)-5-methoxy-3,3-dimethyl-3H-indol-2-amine] | 12900
